# Experimental data taken from the supplement of paper PMC10307832.
# Legend:
# Assay in all cases: relative viability (nuclei count vs DMSO), 5 days (fraction); higher = more cells survive
# CAP-232 + Alpelisib = compound: C[C@H]([C@@H](C(=O)N)NC(=O)[C@@H]1CSSC[C@@H](C(=O)N[C@H](C(=O)N[C@@H](C(=O)N[C@H](C(=O)N1)CCCCN)CC2=CNC3=CC=CC=C32)CC4=CC=C(C=C4)O)NC(=O)[C@@H](CC5=CC=CC=C5)N)O [CAP-232] + Cc1nc(NC(=O)N2CCC[C@H]2C(N)=O)sc1-c1ccnc(C(C)(C)C(F)(F)F)c1 [Alpelisib] (partner 2 µM)
# Procedure, shortened: (§1)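 Lung cancer cell lines, seeded in 1536-well plates, were treated the following day by pin tool with a single drug or with five library-drug doses (not always all listed) in √10 steps on top of a fixed anchor-drug dose. Cells were fixed and nuclei stained in one step after 5 days, and nuclei were counted. Relative viability is the nuclei count for treated wells divided by that for vehicle wells, reported as medians of duplicate plates.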
# CAP-232 + Decitabine = compound: C[C@H]([C@@H](C(=O)N)NC(=O)[C@@H]1CSSC[C@@H](C(=O)N[C@H](C(=O)N[C@@H](C(=O)N[C@H](C(=O)N1)CCCCN)CC2=CNC3=CC=CC=C32)CC4=CC=C(C=C4)O)NC(=O)[C@@H](CC5=CC=CC=C5)N)O [CAP-232] + Nc1ncn([C@H]2C[C@H](O)[C@@H](CO)O2)c(=O)n1 [Decitabine] (partner 2 µM)
# Procedure, shortened: as §1
# CAP-232 + Olaparib = compound: C[C@H]([C@@H](C(=O)N)NC(=O)[C@@H]1CSSC[C@@H](C(=O)N[C@H](C(=O)N[C@@H](C(=O)N[C@H](C(=O)N1)CCCCN)CC2=CNC3=CC=CC=C32)CC4=CC=C(C=C4)O)NC(=O)[C@@H](CC5=CC=CC=C5)N)O [CAP-232] + O=C(c1cc(Cc2n[nH]c(=O)c3ccccc23)ccc1F)N1CCN(C(=O)C2CC2)CC1 [Olaparib] (partner 8 µM)
# Procedure, shortened: as §1
# CAP-232 + Vorinostat = compound: C[C@H]([C@@H](C(=O)N)NC(=O)[C@@H]1CSSC[C@@H](C(=O)N[C@H](C(=O)N[C@@H](C(=O)N[C@H](C(=O)N1)CCCCN)CC2=CNC3=CC=CC=C32)CC4=CC=C(C=C4)O)NC(=O)[C@@H](CC5=CC=CC=C5)N)O [CAP-232] + O=C(CCCCCCC(=O)Nc1ccccc1)NO [Vorinostat] (partner 1 µM)
# Procedure, shortened: as §1
# CAP-232 + Pemetrexed = compound: C[C@H]([C@@H](C(=O)N)NC(=O)[C@@H]1CSSC[C@@H](C(=O)N[C@H](C(=O)N[C@@H](C(=O)N[C@H](C(=O)N1)CCCCN)CC2=CNC3=CC=CC=C32)CC4=CC=C(C=C4)O)NC(=O)[C@@H](CC5=CC=CC=C5)N)O [CAP-232] + Nc1nc2[nH]cc(CCc3ccc(C(=O)N[C@@H](CCC(=O)O)C(=O)O)cc3)c2c(=O)[nH]1 [Pemetrexed] (partner 0.2 µM)
# Procedure, shortened: as §1
Cell Line,relative viability (CAP-232 + Alpelisib; first compound 0.4 µM),relative viability (CAP-232 + Alpelisib; first compound 1.265 µM),relative viability (CAP-232 + Alpelisib; first compound 4 µM),relative viability (CAP-232 + Alpelisib; first compound 12.65 µM),relative viability (CAP-232 + Decitabine; first compound 0.4 µM),relative viability (CAP-232 + Decitabine; first compound 1.265 µM),relative viability (CAP-232 + Decitabine; first compound 4 µM),relative viability (CAP-232 + Decitabine; first compound 12.65 µM),relative viability (CAP-232 + Olaparib; first compound 0.4 µM),relative viability (CAP-232 + Olaparib; first compound 1.265 µM),relative viability (CAP-232 + Olaparib; first compound 4 µM),relative viability (CAP-232 + Olaparib; first compound 12.65 µM),relative viability (CAP-232 + Vorinostat; first compound 0.4 µM),relative viability (CAP-232 + Vorinostat; first compound 1.265 µM),relative viability (CAP-232 + Vorinostat; first compound 4 µM),relative viability (CAP-232 + Vorinostat; first compound 12.65 µM),relative viability (CAP-232 + Pemetrexed; first compound 0.4 µM),relative viability (CAP-232 + Pemetrexed; first compound 1.265 µM),relative viability (CAP-232 + Pemetrexed; first compound 4 µM),relative viability (CAP-232 + Pemetrexed; first compound 12.65 µM)
A549,0.659,0.653,0.734,0.348,0.267,0.212,0.33,0.239,0.211,0.292,0.396,0.326,,,,,,,,
ChaGo-K-1,,,,,0.497,0.542,0.506,0.547,0.425,0.428,0.456,0.421,0.835,0.724,0.709,0.71,0.284,0.259,0.259,0.248
NCI-H1703,0.34,0.378,0.344,0.351,,,,,0.388,0.468,0.315,0.388,,,,,,,,
NCI-H2228,0.816,0.572,0.777,0.848,,,,,0.766,0.73,0.92,0.361,0.657,0.389,0.597,0.709,0.447,0.364,0.335,0.358
NCI-H1650,,,,,0.404,0.423,0.554,0.192,1.04,0.799,0.836,0.493,0.645,0.514,0.622,0.183,0.436,0.385,0.451,0.336
NCI-H1792,0.825,0.823,0.819,0.399,0.636,0.54,0.555,0.365,0.51,0.642,0.623,0.235,,,,,1.12,0.78,0.849,0.465
NCI-H727,,0.59,0.633,0.59,0.717,0.831,1.07,0.957,0.705,0.613,0.757,0.648,1.19,1.08,1.39,1.23,,,,
NCI-H1563,0.92,0.955,0.908,0.626,,,,,,,,,,,,,0.802,0.655,0.744,0.669
IA-LM,0.881,0.742,0.629,0.296,,,,,0.784,0.86,0.993,0.405,0.821,1.01,0.939,0.822,,,,
CAL-12T,1.11,1.24,1.42,0.726,,,,,0.778,0.767,0.696,0.6,0.805,0.752,0.832,0.431,0.929,1.26,1.16,1.1
